Test results reported in patent publication US20250340557A1, “PYRIMIDINE DERIVATIVE” (ASKA PHARMACEUTICAL CO., LTD., priority 2022, published 2025).

These compounds were tested against T1, human mPGES-1 (Homo sapiens, UniProt O14684) (assay: Test for mPGES-1 inhibitory activity (microsomal enzyme, PGE2 EIA)). Conditions: microsomes from COS-1 cells transfected with human mPGES-1 cDNA; substrate PGH2 1 μM; 4° C., 4 minutes; PGE2 measured by EIA; read-out: h mPGES1 IC50.
T1 construct: made in house; host or cells: COS-1 cells (transient transfection; microsomal fraction used as enzyme)
T1 sequence (O14684 1-152): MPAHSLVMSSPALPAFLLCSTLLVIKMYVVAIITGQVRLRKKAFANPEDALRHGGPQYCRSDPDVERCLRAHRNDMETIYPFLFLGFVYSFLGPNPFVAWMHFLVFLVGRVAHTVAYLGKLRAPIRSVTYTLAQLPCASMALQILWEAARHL
Assay type: biochemical
Description: Test Example 1: Test for mPGES-1 Inhibitory Activity
Microsomes were prepared from COS-1 cells transiently transfected with a plasmid containing human mPGES-1 cDNA, and used as mPGES-1 enzyme. The mPGES-1 enzyme was diluted with a sodium phosphate buffer (pH 7.2) containing reduced glutathione (2.5 mM) and EDTA (1 mM), DMSO or a DMSO solution of a test compound (final concentration of DMSO was 2%) was added to the enzyme, and the mixture was preincubated at 4° C. for 15 minutes. Then, PGH2 (Prostaglandin H2) as the substrate was added at a final concentration of 1 μM to start the enzymatic reaction, and after incubation at 4° C. for 4 minutes, a solution of ferric chloride (25 mM) and citric acid (50 mM) was added to terminate the enzymatic reaction. Generated PGE2 (Prostaglandin E2) was measured by using Prostaglandin E2 Express EIA Kit (Cayman Chemical). IC50 values were determined by using a standard method.

| Structure (SMILES) | IC50 [nM] |
| --- | --- |
| O=c1cc(C(F)(F)F)nc(-c2c(C(F)(F)F)ccc(CNC(=O)[C@H]3C[C@@H](OCc4cccc(Cl)c4)C3)c2F)[nH]1 (stereo in doubt) [Example 139, cis-3-[(3-chlorobenzyl)oxy]-N-{2-fluoro-3-[6-oxo-4-(trifluoromethyl)-1,6-dihydropyrimidin-2-yl]-4-(trifluoromethyl)benzyl}cyclobutane-1-carboxamide] | < 1 |
| O=C(NCc1ccc(C(F)(F)F)c(-c2nc(C(F)(F)F)cc(=O)[nH]2)c1F)C1CCN(c2ccc3nccn3n2)CC1 [Example 1, N-{2-fluoro-3-[6-oxo-4-(trifluoromethyl)-1,6-dihydropyrimidin-2-yl]-4-(trifluoromethyl)benzyl}-1-(imidazo[1,2-b]pyridazin-6-yl)piperidine-4-carboxamide] | 37 |
| O=C(NCc1ccc(C(F)(F)F)c(-c2nc(C(F)(F)F)cc(=O)[nH]2)c1F)c1ccc(-c2ccc3nccn3n2)cc1 [Example 2, N-{2-fluoro-3-[6-oxo-4-(trifluoromethyl)-1,6-dihydropyrimidin-2-yl]-4-(trifluoromethyl)benzyl}-4-(imidazo[1,2-b]pyridazin-6-yl)benzamide] | 28.7 |
| Cc1cnc2ccc(N3CCC(C(=O)NCc4ccc(C(F)(F)F)c(-c5nc(C(F)(F)F)cc(=O)[nH]5)c4F)CC3)nn12 [Example 3, N-{2-fluoro-3-[6-oxo-4-(trifluoromethyl)-1,6-dihydropyrimidin-2-yl]-4-(trifluoromethyl)benzyl}-1-(3-methylimidazo[1,2-b]pyridazin-6-yl)piperidine-4-carboxamide] | < 1 |
| Cc1cccc2ccc(N3CCC(C(=O)NCc4ccc(C(F)(F)F)c(-c5nc(C(F)(F)F)cc(=O)[nH]5)c4F)CC3)nc12 [Example 4, N-{2-fluoro-3-[6-oxo-4-(trifluoromethyl)-1,6-dihydropyrimidin-2-yl]-4-(trifluoromethyl)benzyl}-1-(8-methylquinolin-2-yl)piperidine-4-carboxamide] | < 1 |
| O=C(NCc1ccc(C(F)(F)F)c(-c2nc(C(F)(F)F)cc(=O)[nH]2)c1F)C1CCN(c2ccc3ccccc3n2)CC1 [Example 5, N-{2-fluoro-3-[6-oxo-4-(trifluoromethyl)-1,6-dihydropyrimidin-2-yl]-4-(trifluoromethyl)benzyl}-1-(quinolin-2-yl)piperidine-4-carboxamide] | < 10 |
| Cc1cccc2ccc(N3CC(C(=O)NCc4ccc(C(F)(F)F)c(-c5nc(C(F)(F)F)cc(=O)[nH]5)c4F)C3)nc12 [Example 6, N-{2-fluoro-3-[6-oxo-4-(trifluoromethyl)-1,6-dihydropyrimidin-2-yl]-4-(trifluoromethyl)benzyl}-1-(8-methylquinolin-2-yl)azetidine-3-carboxamide] | < 10 |
| Cc1cccc2ccc(N3CCC(C(=O)NCc4ccc(C(F)(F)F)c(-c5nccc(=O)[nH]5)c4F)CC3)nc12 [Example 7, N-[2-fluoro-3-(6-oxo-1,6-dihydropyrimidin-2-yl)-4-(trifluoromethyl)benzyl]-1-(8-methylquinolin-2-yl)piperidine-4-carboxamide] | < 1 |
| Cc1cccc2ccc(N3CCC(C(=O)NCc4ccc(Cl)c(-c5nccc(=O)[nH]5)c4)CC3)nc12 [Example 8, N-[4-chloro-3-(6-oxo-1,6-dihydropyrimidin-2-yl)benzyl]-1-(8-methylquinolin-2-yl)piperidine-4-carboxamide] | 0.64 |
| Cc1cc(=O)[nH]c(-c2c(C(F)(F)F)ccc(CNC(=O)C3CCN(c4ccc5cccc(C)c5n4)CC3)c2F)n1 [Example 9, N-[2-fluoro-3-(4-methyl-6-oxo-1,6-dihydropyrimidin-2-yl)-4-(trifluoromethyl)benzyl]-1-(8-methylquinolin-2-yl)piperidine-4-carboxamide] | < 10 |
| CCc1cc(=O)[nH]c(-c2c(C(F)(F)F)ccc(CNC(=O)C3CCN(c4ccc5cccc(C)c5n4)CC3)c2F)n1 [Example 10, N-[3-(4-ethyl-6-oxo-1,6-dihydropyrimidin-2-yl)-2-fluoro-4-(trifluoromethyl)benzyl]-1-(8-methylquinolin-2-yl)piperidine-4-carboxamide] | < 1 |
| Cc1cccc2ccc(N3CCC(C(=O)NCc4ccc(C(F)(F)F)c(-c5nc(C(C)C)cc(=O)[nH]5)c4F)CC3)nc12 [Example 11, N-[2-fluoro-3-(4-isopropyl-6-oxo-1,6-dihydropyrimidin-2-yl)-4-(trifluoromethyl)benzyl]-1-(8-methylquinolin-2-yl)piperidine-4-carboxamide] | < 1 |
| Cc1cccc2ccc(N3CCC(C(=O)NCc4ccc(C(F)(F)F)c(-c5nc(C(F)F)cc(=O)[nH]5)c4F)CC3)nc12 [Example 12, N-{3-[4-(difluoromethyl)-6-oxo-1,6-dihydropyrimidin-2-yl]-2-fluoro-4-(trifluoromethyl)benzyl}-1-(8-methylquinolin-2-yl)piperidine-4-carboxamide] | 2.1 |
| Cc1nc(-c2c(C(F)(F)F)ccc(CNC(=O)C3CCN(c4ccc5cccc(C)c5n4)CC3)c2F)[nH]c(=O)c1C [Example 13, N-[3-(4,5-dimethyl-6-oxo-1,6-dihydropyrimidin-2-yl)-2-fluoro-4-(trifluoromethyl)benzyl]-1-(8-methylquinolin-2-yl)piperidine-4-carboxamide] | 2.4 |
| Cc1nc(-c2c(C(F)(F)F)ccc(CNC(=O)C3CCN(c4ccc5cccc(C)c5n4)CC3)c2F)[nH]c(=O)c1F [Example 14, N-[2-fluoro-3-(5-fluoro-4-methyl-6-oxo-1,6-dihydropyrimidin-2-yl)-4-(trifluoromethyl)benzyl]-1-(8-methylquinolin-2-yl)piperidine-4-carboxamide] | < 1 |
| Cc1cccc2ccc(N3CCC(F)(C(=O)NCc4ccc(C(F)(F)F)c(-c5nc(C(F)(F)F)cc(=O)[nH]5)c4F)CC3)nc12 [Example 15, 4-fluoro-N-{2-fluoro-3-[6-oxo-4-(trifluoromethyl)-1,6-dihydropyrimidin-2-yl]-4-(trifluoromethyl)benzyl}-1-(8-methylquinolin-2-yl)piperidine-4-carboxamide] | < 1 |
| Cc1cccc(N2CCC(C(=O)NCc3ccc(C(F)(F)F)c(-c4nc(C(F)(F)F)cc(=O)[nH]4)c3F)CC2)n1 [Example 17, N-{2-fluoro-3-[6-oxo-4-(trifluoromethyl)-1,6-dihydropyrimidin-2-yl]-4-(trifluoromethyl)benzyl}-1-(6-methylpyridin-2-yl)piperidine-4-carboxamide] | < 10 |
| O=C(NCc1ccc(C(F)(F)F)c(-c2nc(C(F)(F)F)cc(=O)[nH]2)c1F)C1CCN(c2ccccn2)CC1 [Example 19, N-{2-fluoro-3-[6-oxo-4-(trifluoromethyl)-1,6-dihydropyrimidin-2-yl]-4-(trifluoromethyl)benzyl}-1-(pyridin-2-yl)piperidine-4-carboxamide] | < 1 |
| O=C(NCc1ccc(C(F)(F)F)c(-c2nc(C(F)(F)F)cc(=O)[nH]2)c1F)C1CCN(c2ccc(C(F)(F)F)cn2)CC1 [Example 20, N-{2-fluoro-3-[6-oxo-4-(trifluoromethyl)-1,6-dihydropyrimidin-2-yl]-4-(trifluoromethyl)benzyl}-1-[5-(trifluoromethyl)pyridin-2-yl]piperidine-4-carboxamide] | < 1 |
| O=C(NCc1ccc(C(F)(F)F)c(-c2nc(C(F)(F)F)cc(=O)[nH]2)c1F)C1CCN(c2ccc(C(F)(F)F)nc2)CC1 [Example 21, N-{2-fluoro-3-[6-oxo-4-(trifluoromethyl)-1,6-dihydropyrimidin-2-yl]-4-(trifluoromethyl)benzyl}-1-[6-(trifluoromethyl)pyridin-3-yl]piperidine-4-carboxamide] | < 1 |
| O=C(NCc1ccc(C(F)(F)F)c(-c2nc(C(F)(F)F)cc(=O)[nH]2)c1F)C1CCN(c2cccc(C(F)(F)F)n2)CC1 [Example 22, N-{2-fluoro-3-[6-oxo-4-(trifluoromethyl)-1,6-dihydropyrimidin-2-yl]-4-(trifluoromethyl)benzyl}-1-[6-(trifluoromethyl)pyridin-2-yl]piperidine-4-carboxamide] | 4.9 |
| CCc1cc(=O)[nH]c(-c2c(C(F)(F)F)ccc(CNC(=O)C3CCN(c4ccc(C(F)(F)F)cn4)CC3)c2F)n1 [Example 23, N-[3-(4-ethyl-6-oxo-1,6-dihydropyrimidin-2-yl)-2-fluoro-4-(trifluoromethyl)benzyl]-1-[5-(trifluoromethyl)pyridin-2-yl]piperidine-4-carboxamide] | 4.8 |
| CCc1cc(=O)[nH]c(-c2c(C(F)(F)F)ccc(CNC(=O)C3CCN(c4cccc(C)n4)CC3)c2F)n1 [Example 24, N-[3-(4-ethyl-6-oxo-1,6-dihydropyrimidin-2-yl)-2-fluoro-4-(trifluoromethyl)benzyl]-1-(6-methylpyridin-2-yl)piperidine-4-carboxamide] | 76 |
| O=C(NCc1ccc(C(F)(F)F)c(-c2nc(C(F)(F)F)cc(=O)[nH]2)c1F)C1CN(c2ccc(C(F)(F)F)cn2)C1 [Example 25, N-{2-fluoro-3-[6-oxo-4-(trifluoromethyl)-1,6-dihydropyrimidin-2-yl]-4-(trifluoromethyl)benzyl}-1-[5-(trifluoromethyl)pyridin-2-yl]azetidine-3-carboxamide] | < 1 |
